Laboratory results reported in article PMC6968633, “Synthesis, antibacterial and anticancer activity, and docking study of aminoguanidines containing an alkynyl moiety” (Journal of Enzyme Inhibition and Medicinal Chemistry, 2019).
≈ marks a conversion by molar mass, not a printed value.

What was measured:
[1] = tested on: Staphylococcus aureus CMCC(B)26003; assay: Antibacterial MIC, serial dilution; type: cell-based; settings: Staphylococcus aureus; S. aureus CMCC(B)26003, 24 h, 37 °C; read-out: MIC
Experimental: (§1) Test bacteria were grown to mid-log phase in Mueller–Hinton broth (MHB) or Tryptone Soya Broth (TSB) and diluted 1000-fold in the same medium. Bacteria (10^5 CFU/mL) were inoculated into MHB or TSB and dispensed at 0.2 ml/well into a 96-well microtiter plate. As positive controls, gatifloxacin, moxifloxacin, norfloxacin, oxacillin, and penicillin were used. […] Bacterial growth was determined by measuring the absorption at 630 nm using a microplate reader. All experiments were carried out three times.
(§2) The evaluation of antibacterial activity of all compounds (3a–3j and 6a–6k) was performed by a serial dilution method to determine the MIC against a panel of pathogens comprising five Gram-positive strains (S. aureus (CMCC(B) 26003 and CMCC 25923), Streptococcus mutans BNCC 336931, Enterococcus faecalis CMCC 29212, and Bacillus subtilis CMCC 63501), four Gram-negative strains (E. coli (CMCC 25922 and CMCC 44568) and P. aeruginosa (CMCC 27853 and CMCC 10104)), as well as three methicillin-resistant clinical isolates (S. aureus ATCC 43300 and ATCC 33591, P. aeruginosa ATCC BAA-2111). The results are described in Tables 1 and 2. Gatifloxacin, moxifloxacin, norfloxacin, oxacillin, and penicillin were used as positive controls.

[2] = tested on: Pseudomonas aeruginosa CMCC 27853; assay: Antibacterial MIC, serial dilution; type: cell-based; settings: Pseudomonas aeruginosa, CMCC27853; P. aeruginosa CMCC 27853, 24 h, 37 °C; read-out: MIC
Experimental: as §1, §2

[3] = tested on: Enterococcus faecalis CMCC 29212; assay: Antibacterial MIC, serial dilution; type: cell-based; settings: Enterococcus faecalis, CMCC29212; E. faecalis CMCC 29212, 24 h, 37 °C; read-out: MIC
Experimental: as §1, §2

[4] = tested on: Escherichia coli CMCC 44568; assay: Antibacterial MIC, serial dilution; type: cell-based; settings: Escherichia coli, CMCC44568; E. coli CMCC 44568, 24 h, 37 °C; read-out: MIC
Experimental: as §1, §2

[5] = tested on: Pseudomonas aeruginosa CMCC 10104; assay: Antibacterial MIC, serial dilution; type: cell-based; settings: Pseudomonas aeruginosa, CMCC10104; P. aeruginosa CMCC 10104, 24 h, 37 °C; read-out: MIC
Experimental: as §1, §2

[6] = tested on: Bacillus subtilis CMCC 63501; assay: Antibacterial MIC, serial dilution; type: cell-based; settings: Bacillus subtilis, CMCC63501; B. subtilis CMCC 63501, 24 h, 37 °C; read-out: MIC
Experimental: as §1, §2

[7] = tested on: Escherichia coli CMCC 25922; assay: Antibacterial MIC, serial dilution; type: cell-based; settings: Escherichia coli, CMCC25922; E. coli CMCC 25922, 24 h, 37 °C; read-out: MIC
Experimental: as §1, §2

[8] = tested on: Streptococcus mutans BNCC 336931; assay: Antibacterial MIC, serial dilution; type: cell-based; settings: Streptococcus mutans, BNCC336931; S. mutans BNCC 336931, 24 h, 37 °C; read-out: MIC
Experimental: as §1, §2

[9] = tested on: Staphyiococcus aureus CMCC 25923; assay: Antibacterial MIC, serial dilution; type: cell-based, Staphylococcus aureus; settings: Staphylococcus aureus, CMCC25923; S. aureus CMCC 25923, 24 h, 37 °C; read-out: MIC
Experimental: as §1, §2

SGC7901 = assay: Cytotoxicity, CCK-8 assay; type: cell-based; settings: Homo sapiens, SGC-7901, SGC7901 gastric cancer cells, 48 h
Experimental: (§3) A lung cancer cell line (A549), gastric cancer cell line (SGC7901) and human hepatocytes (L02) were used to test the anticancer activity and cytotoxicity of the new compounds. 5-Fluorouracil (5-FU) was used as the positive control against cancer cell lines. The A549, SGC7901 and L02 cells were grown in Dulbecco’s modified Eagle’s medium (DMEM) supplemented with 10% foetal bovine serum (FBS) and antibiotics (100 U/mL penicillin-streptomycin). Cells at 80–90% confluence were split by trypsin (0.25% in PBS; pH 7.4), and the medium was changed at 24 h intervals. The cells were cultured at 37 °C in a 5% CO2 incubator. The cells were passaged three times, then approximately 1 × 10^4 cells were seeded into each well of a 96-well plate and allowed to incubate to allow attachment of the cells to the surface. After 24 h, the medium was replaced with DMEM supplemented with 10% FBS containing various concentrations (0.1, 0.3, 1, 3, 10, and 30 μg/mL) of test compounds. Each concentration was tested in triplicate. After 48 h treatment, 20 µL of CCK-8 solution was added to each well and the optical density measured at 450 nm after 3 h using a microplate reader. The IC50 values were defined as the concentrations inhibiting 50% of cell growth.

A549 = assay: Cytotoxicity, CCK-8 assay; type: cell-based; settings: Homo sapiens, A549 lung cancer cells, 48 h
Experimental: as §3

[10] = tested on: Staphylococcus aureus ATCC 43300; assay: Antibacterial MIC, multidrug-resistant clinical isolate; type: cell-based; settings: Staphylococcus aureus, ATCC43300; multidrug-resistant S. aureus ATCC 43300; read-out: MIC
Experimental: as §1, §2

[11] = tested on: Staphylococcus aureus ATCC 33591; assay: as above; type: cell-based; settings: Staphylococcus aureus, ATCC33591; multidrug-resistant S. aureus ATCC 33591; read-out: MIC
Experimental: as §1, §2

L02 = assay: Cytotoxicity, CCK-8 assay, normal cell line; type: cell-based; settings: L02 normal human hepatocytes, 48 h
Experimental: as §3

[12] = tested on: Pseudomonas aeruginosa ATCC BAA-2111; assay: Antibacterial MIC, multidrug-resistant clinical isolate; type: cell-based; settings: ATCCBAA2111, multidrug-resistant P. aeruginosa ATCC BAA-2111
Experimental: as §1, §2

| SMILES | MIC [1] [µg/mL] | MIC [2] [µg/mL] | MIC [3] [µg/mL] | MIC [4] [µg/mL] | MIC [5] [µg/mL] | MIC [6] [µg/mL] | MIC [7] [µg/mL] | MIC [8] [µg/mL] | MIC [9] [µg/mL] | IC50 (SGC7901) [µg/mL] | IC50 (A549) [µg/mL] | melting point [°C] | MIC [10] [µg/mL] | MIC [11] [µg/mL] | IC50 (L02) [µg/mL] | MIC [12] [µg/mL] |
| --- | --- | --- | --- | --- | --- | --- | --- | --- | --- | --- | --- | --- | --- | --- | --- | --- |
| N=C(N)NN=Cc1ccc(C#CC#Cc2ccccc2Cl)cc1 [Compound 6e, 2-(4-((2-Chlorophenyl)buta-1,3-diyn-1-yl)benzylidene)hydrazine-1-carboximidamide] | 0.25 (≈ 0.779 µM) | > 128 | 0.5 (≈ 1.56 µM) | 64 (≈ 200 µM) | 4 (≈ 12.5 µM) | 4 (≈ 12.5 µM) | 8 (≈ 24.9 µM) | 1 (≈ 3.12 µM) | 128 (≈ 399 µM) | 1.48 (≈ 4.61 µM) | 3.62 (≈ 11.3 µM) | 207 to 210 | 8 (≈ 24.9 µM) | 0.5 (≈ 1.56 µM) | 14.8 (≈ 46.1 µM) | – |
| N=C(N)NN=Cc1ccc(C#Cc2cccc(Cl)c2)cc1 [Compound 3f, 2-(4-((3-Chlorophenyl)ethynyl)benzylidene)hydrazine-1-carboximidamide] | 1 (≈ 3.37 µM) | > 128 | 0.5 (≈ 1.68 µM) | 4 (≈ 13.5 µM) | 2 (≈ 6.74 µM) | 0.5 (≈ 1.68 µM) | 2 (≈ 6.74 µM) | 2 (≈ 6.74 µM) | 1 (≈ 3.37 µM) | 0.3 (≈ 1.01 µM) | 2.55 (≈ 8.59 µM) | 213 to 214 | – | – | 10.2 (≈ 34.5 µM) | – |
| Cc1cccc(C#CC#Cc2ccc(C=NNC(=N)N)cc2)c1 [Compound 6k, 2-(4-(m-Tolylbuta-1,3-diyn-1-yl)benzylidene)hydrazine-1-carboximidamide] | 1 (≈ 3.33 µM) | > 128 | 0.5 (≈ 1.66 µM) | 128 (≈ 426 µM) | 4 (≈ 13.3 µM) | 2 (≈ 6.66 µM) | 4 (≈ 13.3 µM) | 0.5 (≈ 1.66 µM) | 32 (≈ 107 µM) | 0.55 (≈ 1.83 µM) | 3.58 (≈ 11.9 µM) | 202 to 204 | – | – | 14.8 (≈ 49.2 µM) | – |
| N=C(N)NN=Cc1ccc(C#Cc2cccc(Br)c2)cc1 [Compound 3i, 2-(4-((3-Bromophenyl)ethynyl)benzylidene)hydrazine-1-carboximidamide] | 1 (≈ 2.93 µM) | > 128 | 1 (≈ 2.93 µM) | 2 (≈ 5.86 µM) | 2 (≈ 5.86 µM) | 1 (≈ 2.93 µM) | 2 (≈ 5.86 µM) | 1 (≈ 2.93 µM) | 2 (≈ 5.86 µM) | 1.26 (≈ 3.69 µM) | 4.03 (≈ 11.8 µM) | 223 to 225 | 2 (≈ 5.86 µM) | 0.5 (≈ 1.47 µM) | 19.6 (≈ 57.5 µM) | – |
| COc1c(N2CCNC(C)C2)c(F)cc2c(=O)c(C(=O)O)cn(C3CC3)c12 (centres unmarked) [Gatifloxacin, reference compound] | 0.125 (≈ 0.333 µM) | 2 (≈ 5.33 µM) | 1 (≈ 2.66 µM) | 0.125 (≈ 0.333 µM) | 2 (≈ 5.33 µM) | 2 (≈ 5.33 µM) | 0.125 (≈ 0.333 µM) | 1 (≈ 2.66 µM) | 0.125 (≈ 0.333 µM) | – | – | – | 0.5 (≈ 1.33 µM) | 0.25 (≈ 0.666 µM) | – | 1 (≈ 2.66 µM) |
| O=c1[nH]cc(F)c(=O)[nH]1 [5-Fluorouracil, reference compound] | – | – | – | – | – | – | – | – | – | 2.56 (≈ 19.7 µM) | 0.88 (≈ 6.77 µM) | – | – | – | 8.44 (≈ 64.9 µM) | – |
| N=C(N)NN=Cc1ccc(C#CC#Cc2ccccc2F)cc1 [Compound 6b, 2-(4-((2-Fluorophenyl)buta-1,3-diyn-1-yl)benzylidene)hydrazine-1-carboximidamide] | 0.25 (≈ 0.821 µM) | > 128 | 0.5 (≈ 1.64 µM) | 128 (≈ 421 µM) | 128 (≈ 421 µM) | 4 (≈ 13.1 µM) | 8 (≈ 26.3 µM) | 0.5 (≈ 1.64 µM) | 1 (≈ 3.29 µM) | 1.37 (≈ 4.5 µM) | 2.22 (≈ 7.29 µM) | 218 to 220 | 8 (≈ 26.3 µM) | 1 (≈ 3.29 µM) | 18 (≈ 59.1 µM) | – |
| N=C(N)NN=Cc1ccc(C#Cc2ccccc2Cl)cc1 [Compound 3e, 2-(4-((2-Chlorophenyl)ethynyl)benzylidene)hydrazine-1-carboximidamide] | 0.5 (≈ 1.68 µM) | > 128 | 0.5 (≈ 1.68 µM) | 8 (≈ 27 µM) | 4 (≈ 13.5 µM) | 1 (≈ 3.37 µM) | 2 (≈ 6.74 µM) | 2 (≈ 6.74 µM) | 2 (≈ 6.74 µM) | 0.45 (≈ 1.52 µM) | 4.57 (≈ 15.4 µM) | 200 to 203 | 2 (≈ 6.74 µM) | 0.5 (≈ 1.68 µM) | 12.4 (≈ 41.9 µM) | – |
| N=C(N)NN=Cc1ccc(C#Cc2ccc(F)cc2)cc1 [Compound 3d, 2-(4-((4-Fluorophenyl)ethynyl)benzylidene)hydrazine-1-carboximidamide] | 1 (≈ 3.57 µM) | 8 (≈ 28.5 µM) | 1 (≈ 3.57 µM) | 8 (≈ 28.5 µM) | 2 (≈ 7.14 µM) | 1 (≈ 3.57 µM) | 2 (≈ 7.14 µM) | 4 (≈ 14.3 µM) | 2 (≈ 7.14 µM) | – | – | 238 to 239 | 4 (≈ 14.3 µM) | 1 (≈ 3.57 µM) | – | – |
